Laboratory results: patent US10815230B2, “Casein kinase 1 delta inhibitor” (ELECTROPHORETICS LIMITED, priority 2015, dated 2020)

Columns and labels:
Experiment in all cases: KINOMEscan binding assay
Settings in all cases: read-out: % Ctrl @ 10000 nM
[1] = target: ABL1 (T315I) phosphorylated (Homo sapiens, UniProt P00519, T315I)
ALK (C1156Y) = ALK (C1156Y) (Homo sapiens, UniProt Q9UM73, C1156Y)
AURKA = AURKA (Homo sapiens, UniProt O14965)
CAMK1 = CAMK1 (Homo sapiens, UniProt Q14012)
CDK4-cyclinD3 = CDK4-cyclinD3 (Homo sapiens, UniProt P11802)
CLK4 = CLK4 (Homo sapiens, UniProt Q9HAZ1)
EPHA5 = EPHA5 (Homo sapiens, UniProt P54756)
EPHA7 = EPHA7 (Homo sapiens, UniProt Q15375)
ERK3 = ERK3 (Homo sapiens, UniProt Q16659)
FER = FER (Homo sapiens, UniProt P16591)
FGFR3 = FGFR3 (Homo sapiens, UniProt P22607)
FLT3 (D835H) = FLT3 (D835H) (Homo sapiens, UniProt P36888, D835H)
FLT3 (K663Q) = FLT3 (K663Q) (Homo sapiens, UniProt P36888, K663Q)
GSK3A = GSK3A (Homo sapiens, UniProt P49840)
GSK3B = GSK3B (Homo sapiens, UniProt P49841)
HIPK3 = HIPK3 (Homo sapiens, UniProt Q9H422)
HPK1 = HPK1 (Homo sapiens, UniProt Q92918)
INSRR = INSRR (Homo sapiens, UniProt P14616)
[2] = target: JAK2 (JH1domain-catalytic) (Homo sapiens, UniProt O60674)
KIT (D816V) = KIT (D816V) (Homo sapiens, UniProt P10721, D816V)
LRRK2 = LRRK2 (Homo sapiens, UniProt Q5S007)
MAP3K15 = target: T1, MAP3K15 (Homo sapiens, UniProt Q6ZN16)
T1 construct: T7 phage fusion (most assays) or DNA label after HEK293 expression; purchased DiscoveRx (KINOMEscan, LeadHunter Discovery services); host or cells: T7 phage in E. coli (BL21-derived) or HEK293

MAP4K5 = target: T2, MAP4K5 (Homo sapiens, UniProt Q9Y4K4)
T2 construct: T7 phage fusion (most assays) or DNA label after HEK293 expression; purchased DiscoveRx (KINOMEscan, LeadHunter Discovery services); host or cells: T7 phage in E. coli (BL21-derived) or HEK293

MET (Y1235D) = MET (Y1235D) (Homo sapiens, UniProt P08581, Y1235D)
MKNK2 = MKNK2 (Homo sapiens, UniProt Q9HBH9)
MST3 = MST3 (Homo sapiens, UniProt Q9Y6E0)
MYO3B = MYO3B (Homo sapiens, UniProt Q8WXR4)
NIK = NIK (Homo sapiens, UniProt Q99558)
PFTK1 = PFTK1 (Homo sapiens, UniProt O94921)
PIK3CA (H1047Y) = PIK3CA (H1047Y) (Homo sapiens, UniProt P42336, H1047Y)
PLK1 = PLK1 (Homo sapiens, UniProt P53350)
PRKCH = PRKCH (Homo sapiens, UniProt P24723)
RIOK3 = RIOK3 (Homo sapiens, UniProt O14730)
[3] = target: RSK2 Kin.Dom.2-C-terminal (Homo sapiens, UniProt P51812)
SgK110 = SgK110 (Homo sapiens, UniProt P0C264)
SRPK2 = SRPK2 (Homo sapiens, UniProt P78362)
STK36 = STK36 (Homo sapiens, UniProt Q9NRP7)
TAOK1 = TAOK1 (Homo sapiens, UniProt Q7L7X3)
TGFBR1 = TGFBR1 (Homo sapiens, UniProt P36897)
TNK2 = TNK2 (Homo sapiens, UniProt Q07912)
TXK = TXK (Homo sapiens, UniProt P42681)
Chain of TXK (P42681 whole entry): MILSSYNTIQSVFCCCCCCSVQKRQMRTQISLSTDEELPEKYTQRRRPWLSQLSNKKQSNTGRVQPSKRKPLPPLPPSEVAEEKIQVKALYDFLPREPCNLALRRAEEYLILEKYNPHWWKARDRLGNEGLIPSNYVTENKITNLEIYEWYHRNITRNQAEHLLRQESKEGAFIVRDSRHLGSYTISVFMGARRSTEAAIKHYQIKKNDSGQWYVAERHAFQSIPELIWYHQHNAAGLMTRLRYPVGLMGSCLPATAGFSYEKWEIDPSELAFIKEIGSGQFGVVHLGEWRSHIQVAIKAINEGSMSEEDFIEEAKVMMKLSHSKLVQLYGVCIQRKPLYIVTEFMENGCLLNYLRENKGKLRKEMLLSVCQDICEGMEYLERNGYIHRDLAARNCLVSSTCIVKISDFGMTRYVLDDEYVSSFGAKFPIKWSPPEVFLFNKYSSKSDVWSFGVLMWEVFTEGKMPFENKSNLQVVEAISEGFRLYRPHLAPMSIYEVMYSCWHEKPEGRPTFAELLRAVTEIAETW

Chain of GSK3B (P49841 whole entry): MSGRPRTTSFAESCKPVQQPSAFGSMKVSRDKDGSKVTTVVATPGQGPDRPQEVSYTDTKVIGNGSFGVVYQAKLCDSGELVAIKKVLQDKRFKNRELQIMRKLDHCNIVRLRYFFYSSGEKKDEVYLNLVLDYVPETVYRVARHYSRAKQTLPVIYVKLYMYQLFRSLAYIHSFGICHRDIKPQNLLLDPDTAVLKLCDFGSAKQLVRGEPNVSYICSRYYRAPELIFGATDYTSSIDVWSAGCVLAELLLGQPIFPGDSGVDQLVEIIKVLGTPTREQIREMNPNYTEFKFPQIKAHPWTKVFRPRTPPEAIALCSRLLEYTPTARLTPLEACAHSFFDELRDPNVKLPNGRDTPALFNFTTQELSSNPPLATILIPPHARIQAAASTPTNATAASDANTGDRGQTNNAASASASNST
Chain of NIK (Q99558 whole entry): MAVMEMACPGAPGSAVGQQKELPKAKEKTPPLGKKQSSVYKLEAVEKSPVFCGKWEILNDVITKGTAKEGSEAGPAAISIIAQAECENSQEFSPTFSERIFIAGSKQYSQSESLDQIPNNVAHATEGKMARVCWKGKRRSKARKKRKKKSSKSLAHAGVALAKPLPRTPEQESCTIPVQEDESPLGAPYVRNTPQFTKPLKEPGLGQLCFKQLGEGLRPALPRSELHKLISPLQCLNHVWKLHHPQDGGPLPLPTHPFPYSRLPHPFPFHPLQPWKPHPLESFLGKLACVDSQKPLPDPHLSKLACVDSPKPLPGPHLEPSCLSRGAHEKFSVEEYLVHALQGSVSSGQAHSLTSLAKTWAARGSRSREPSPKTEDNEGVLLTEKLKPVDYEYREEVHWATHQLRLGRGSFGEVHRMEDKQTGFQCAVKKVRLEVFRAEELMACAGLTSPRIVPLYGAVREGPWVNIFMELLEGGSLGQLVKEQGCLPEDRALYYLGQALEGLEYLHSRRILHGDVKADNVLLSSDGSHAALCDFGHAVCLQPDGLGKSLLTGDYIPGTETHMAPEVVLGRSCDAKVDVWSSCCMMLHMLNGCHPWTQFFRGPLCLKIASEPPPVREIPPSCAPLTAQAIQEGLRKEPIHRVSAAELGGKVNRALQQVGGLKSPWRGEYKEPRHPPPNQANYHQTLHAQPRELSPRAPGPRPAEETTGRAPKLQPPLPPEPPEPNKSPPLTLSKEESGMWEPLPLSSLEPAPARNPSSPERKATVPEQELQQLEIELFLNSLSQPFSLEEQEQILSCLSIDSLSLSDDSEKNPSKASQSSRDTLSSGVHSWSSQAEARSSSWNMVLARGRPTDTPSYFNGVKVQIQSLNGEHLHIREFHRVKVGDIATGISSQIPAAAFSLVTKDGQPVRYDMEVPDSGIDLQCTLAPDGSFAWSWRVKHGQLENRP
T1 sequence (Q6ZN16 whole entry, the tested form may be a part): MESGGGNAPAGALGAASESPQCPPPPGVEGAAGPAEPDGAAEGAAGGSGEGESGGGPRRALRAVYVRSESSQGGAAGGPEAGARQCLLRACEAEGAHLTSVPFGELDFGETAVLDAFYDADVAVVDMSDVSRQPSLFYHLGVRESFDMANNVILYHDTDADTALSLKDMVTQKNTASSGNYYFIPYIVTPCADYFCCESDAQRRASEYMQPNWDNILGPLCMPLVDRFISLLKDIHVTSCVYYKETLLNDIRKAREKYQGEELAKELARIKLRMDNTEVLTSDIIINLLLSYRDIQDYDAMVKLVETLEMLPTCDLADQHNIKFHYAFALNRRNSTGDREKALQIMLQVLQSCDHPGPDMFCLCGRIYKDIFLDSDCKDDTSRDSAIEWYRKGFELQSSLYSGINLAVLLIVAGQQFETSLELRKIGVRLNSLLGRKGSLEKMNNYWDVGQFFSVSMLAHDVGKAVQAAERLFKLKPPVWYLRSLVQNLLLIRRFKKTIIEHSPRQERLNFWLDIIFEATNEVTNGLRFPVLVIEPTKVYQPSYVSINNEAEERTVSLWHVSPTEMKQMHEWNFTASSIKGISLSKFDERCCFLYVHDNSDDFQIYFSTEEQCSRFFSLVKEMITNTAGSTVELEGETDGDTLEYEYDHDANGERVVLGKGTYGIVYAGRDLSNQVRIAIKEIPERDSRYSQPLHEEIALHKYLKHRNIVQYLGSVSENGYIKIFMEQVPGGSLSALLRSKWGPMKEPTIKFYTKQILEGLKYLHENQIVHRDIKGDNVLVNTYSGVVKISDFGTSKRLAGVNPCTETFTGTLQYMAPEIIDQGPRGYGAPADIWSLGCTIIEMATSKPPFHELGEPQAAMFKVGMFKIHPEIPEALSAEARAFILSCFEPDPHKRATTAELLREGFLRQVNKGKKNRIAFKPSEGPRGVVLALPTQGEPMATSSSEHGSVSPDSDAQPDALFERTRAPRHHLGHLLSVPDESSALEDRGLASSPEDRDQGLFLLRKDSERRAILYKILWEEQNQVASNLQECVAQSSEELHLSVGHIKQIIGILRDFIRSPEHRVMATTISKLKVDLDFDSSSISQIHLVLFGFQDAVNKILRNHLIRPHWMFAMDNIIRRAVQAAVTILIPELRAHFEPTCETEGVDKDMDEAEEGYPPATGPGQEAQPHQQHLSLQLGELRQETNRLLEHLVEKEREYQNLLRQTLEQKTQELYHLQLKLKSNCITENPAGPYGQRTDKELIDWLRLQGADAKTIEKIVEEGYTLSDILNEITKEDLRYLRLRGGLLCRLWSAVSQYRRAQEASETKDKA
Chain of CAMK1 (Q14012 whole entry): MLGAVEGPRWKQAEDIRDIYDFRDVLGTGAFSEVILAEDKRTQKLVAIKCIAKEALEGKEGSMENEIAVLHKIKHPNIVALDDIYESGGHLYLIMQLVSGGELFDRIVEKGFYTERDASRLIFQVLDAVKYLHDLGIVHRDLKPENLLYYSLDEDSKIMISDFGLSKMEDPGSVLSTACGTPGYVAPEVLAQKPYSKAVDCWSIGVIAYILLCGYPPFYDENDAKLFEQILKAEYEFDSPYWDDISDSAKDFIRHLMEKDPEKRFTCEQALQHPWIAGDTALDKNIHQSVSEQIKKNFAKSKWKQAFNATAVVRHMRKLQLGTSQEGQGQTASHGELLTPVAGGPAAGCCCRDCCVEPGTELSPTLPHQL
Chain of MYO3B (Q8WXR4 whole entry): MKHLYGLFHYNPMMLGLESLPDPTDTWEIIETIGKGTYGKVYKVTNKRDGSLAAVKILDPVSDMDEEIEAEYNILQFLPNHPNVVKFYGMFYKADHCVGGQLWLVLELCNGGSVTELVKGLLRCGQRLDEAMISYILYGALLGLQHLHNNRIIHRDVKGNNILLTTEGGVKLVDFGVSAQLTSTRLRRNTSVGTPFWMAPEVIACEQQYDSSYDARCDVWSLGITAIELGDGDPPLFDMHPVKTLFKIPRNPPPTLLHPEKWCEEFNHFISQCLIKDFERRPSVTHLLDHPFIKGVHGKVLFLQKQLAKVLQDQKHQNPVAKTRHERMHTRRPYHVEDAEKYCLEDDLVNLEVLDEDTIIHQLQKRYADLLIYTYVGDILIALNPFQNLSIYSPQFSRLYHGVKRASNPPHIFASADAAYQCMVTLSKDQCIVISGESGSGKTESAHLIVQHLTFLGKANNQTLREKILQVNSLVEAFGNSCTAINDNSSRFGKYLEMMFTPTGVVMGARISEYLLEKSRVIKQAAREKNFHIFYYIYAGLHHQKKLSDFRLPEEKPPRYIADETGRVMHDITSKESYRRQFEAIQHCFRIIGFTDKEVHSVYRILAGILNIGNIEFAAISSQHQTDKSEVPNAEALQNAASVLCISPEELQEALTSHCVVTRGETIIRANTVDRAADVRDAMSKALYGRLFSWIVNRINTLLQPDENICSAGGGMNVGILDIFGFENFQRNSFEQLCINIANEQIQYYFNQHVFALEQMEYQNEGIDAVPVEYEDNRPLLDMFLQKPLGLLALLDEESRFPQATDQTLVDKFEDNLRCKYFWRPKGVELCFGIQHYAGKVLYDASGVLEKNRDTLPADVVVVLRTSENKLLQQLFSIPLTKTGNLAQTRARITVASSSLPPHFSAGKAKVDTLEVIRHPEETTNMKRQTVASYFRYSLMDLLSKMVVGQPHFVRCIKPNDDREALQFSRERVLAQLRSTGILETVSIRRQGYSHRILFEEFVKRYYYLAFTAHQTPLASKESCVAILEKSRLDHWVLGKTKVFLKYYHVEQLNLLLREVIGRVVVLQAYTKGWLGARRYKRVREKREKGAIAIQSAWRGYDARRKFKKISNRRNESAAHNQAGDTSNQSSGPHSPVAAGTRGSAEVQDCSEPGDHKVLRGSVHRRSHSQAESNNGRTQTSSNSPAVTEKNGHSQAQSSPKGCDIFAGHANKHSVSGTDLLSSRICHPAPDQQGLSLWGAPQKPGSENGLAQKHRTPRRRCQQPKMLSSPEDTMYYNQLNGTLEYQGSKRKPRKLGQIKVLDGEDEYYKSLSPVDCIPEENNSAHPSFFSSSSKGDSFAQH

Nc1ncc(-c2nc3ccccc3o2)c(-c2ccncc2)n1 [Comparative Compound 324, 5-(1,3-benzoxazol-2-yl)-4-(pyridine-4-yl)pyrimidin-2-amine]
remaining binding at 10 µM [1]: 85% | remaining binding at 10 µM (ALK (C1156Y)): 100% | remaining binding at 10 µM (AURKA): 99% | remaining binding at 10 µM (CAMK1): 100% | remaining binding at 10 µM (CDK4-cyclinD3): 100% | remaining binding at 10 µM (CLK4): 83% | remaining binding at 10 µM (EPHA5): 100% | remaining binding at 10 µM (EPHA7): 87% | remaining binding at 10 µM (ERK3): 100% | remaining binding at 10 µM (FER): 100% | remaining binding at 10 µM (FGFR3): 95% | remaining binding at 10 µM (FLT3 (D835H)): 68% | remaining binding at 10 µM (FLT3 (K663Q)): 100% | remaining binding at 10 µM (GSK3A): 86% | remaining binding at 10 µM (GSK3B): 95% | remaining binding at 10 µM (HIPK3): 91% | remaining binding at 10 µM (HPK1): 86% | remaining binding at 10 µM (INSRR): 100% | remaining binding at 10 µM [2]: 98% | remaining binding at 10 µM (KIT (D816V)): 91% | remaining binding at 10 µM (LRRK2): 83% | remaining binding at 10 µM (MAP3K15): 100% | remaining binding at 10 µM (MAP4K5): 88% | remaining binding at 10 µM (MET (Y1235D)): 83% | remaining binding at 10 µM (MKNK2): 70% | remaining binding at 10 µM (MST3): 98% | remaining binding at 10 µM (MYO3B): 100% | remaining binding at 10 µM (NIK): 100% | remaining binding at 10 µM (PFTK1): 96% | remaining binding at 10 µM (PIK3CA (H1047Y)): 72% | remaining binding at 10 µM (PLK1): 90% | remaining binding at 10 µM (PRKCH): 99% | remaining binding at 10 µM (RIOK3): 57% | remaining binding at 10 µM [3]: 100% | remaining binding at 10 µM (SgK110): 94% | remaining binding at 10 µM (SRPK2): 100% | remaining binding at 10 µM (STK36): 96% | remaining binding at 10 µM (TAOK1): 100% | remaining binding at 10 µM (TGFBR1): 94% | remaining binding at 10 µM (TNK2): 100% | remaining binding at 10 µM (TXK): 93%

CNc1c(C(N)=O)c2ccccn2c1C(=O)c1ccc(F)cc1 [Compound A, 2-methyl-amino-3-[(4-fluorophenyl)carbonyl]indolizine-1-carboxamide]
remaining binding at 10 µM [1]: 100% | remaining binding at 10 µM (ALK (C1156Y)): 98% | remaining binding at 10 µM (AURKA): 91% | remaining binding at 10 µM (CAMK1): 100% | remaining binding at 10 µM (CDK4-cyclinD3): 96% | remaining binding at 10 µM (CLK4): 76% | remaining binding at 10 µM (EPHA5): 70% | remaining binding at 10 µM (EPHA7): 82% | remaining binding at 10 µM (ERK3): 88% | remaining binding at 10 µM (FER): 98% | remaining binding at 10 µM (FGFR3): 90% | remaining binding at 10 µM (FLT3 (D835H)): 60% | remaining binding at 10 µM (FLT3 (K663Q)): 99% | remaining binding at 10 µM (GSK3A): 56% | remaining binding at 10 µM (GSK3B): 86% | remaining binding at 10 µM (HIPK3): 79% | remaining binding at 10 µM (HPK1): 82% | remaining binding at 10 µM (INSRR): 100% | remaining binding at 10 µM [2]: 90% | remaining binding at 10 µM (KIT (D816V)): 71% | remaining binding at 10 µM (LRRK2): 82% | remaining binding at 10 µM (MAP3K15): 94% | remaining binding at 10 µM (MAP4K5): 62% | remaining binding at 10 µM (MET (Y1235D)): 77% | remaining binding at 10 µM (MKNK2): 58% | remaining binding at 10 µM (MST3): 71% | remaining binding at 10 µM (MYO3B): 100% | remaining binding at 10 µM (NIK): 100% | remaining binding at 10 µM (PFTK1): 77% | remaining binding at 10 µM (PIK3CA (H1047Y)): 80% | remaining binding at 10 µM (PLK1): 82% | remaining binding at 10 µM (PRKCH): 95% | remaining binding at 10 µM (RIOK3): 72% | remaining binding at 10 µM [3]: 43% | remaining binding at 10 µM (SgK110): 92% | remaining binding at 10 µM (SRPK2): 100% | remaining binding at 10 µM (STK36): 69% | remaining binding at 10 µM (TAOK1): 94% | remaining binding at 10 µM (TGFBR1): 92% | remaining binding at 10 µM (TNK2): 81% | remaining binding at 10 µM (TXK): 45%
